Laboratory results as given in article PMC3920638, “The Development of Selective Inhibitors of NagZ: Increased Susceptibility of Gram-Negative Bacteria to β-Lactams” (Chembiochem, 2013).
pKi: −log10 of the molar value. In brackets after ≈: the same amount, converted by molar mass. Like-named read-outs stand apart in the source and are kept apart here.

Experiments:
VcNagZ = molecular target: T1, VcNagZ (Vibrio cholerae serotype O1, UniProt Q9KU37); test: Kinetic analysis of inhibitors against VcNagZ; format: biochemical; conditions: for S.R. (Ki OGA/Ki VcNagZ): selectivity ratio
T1 sequence (Q9KU37 1-330): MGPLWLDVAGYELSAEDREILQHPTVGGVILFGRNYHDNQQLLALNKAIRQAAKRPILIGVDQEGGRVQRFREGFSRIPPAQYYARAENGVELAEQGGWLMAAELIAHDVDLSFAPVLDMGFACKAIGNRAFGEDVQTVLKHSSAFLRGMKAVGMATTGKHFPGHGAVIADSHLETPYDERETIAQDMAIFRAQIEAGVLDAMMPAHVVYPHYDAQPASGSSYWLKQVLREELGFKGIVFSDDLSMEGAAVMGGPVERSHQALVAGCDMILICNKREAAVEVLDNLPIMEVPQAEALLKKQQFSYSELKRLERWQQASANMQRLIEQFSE
Method: (§1) Kinetic analysis of inhibitors: Assays against O-GlcNAcase, VcNagZ and StNagZ were performed in NaPi buffer (50 mM, NaCl (100 mM), pH 6.5) and for β-hexosaminidase B citrate buffer (50 mM, NaCl (100 mM), pH 4.25) using 4-methylumbelliferyl N-acetyl-β-D-glucosaminide as substrate. For NAGLU, assays were performed in acetate buffer (100 mM, pH 4.3), containing bovine serum albumin (0.5 mgmL^−1) using 4-methylumbelliferyl N-acetyl-α-D-glucosaminide as substrate. Release of 4-methylumbelliferone was monitored continuously using a fluorimeter plate reader for OGA, VcNagZ and StNagZ, and a 30 min stopped-assay procedure was used for β-hexosaminidase B and NAGLU (quenched with fourfold excess of quenching buffer, glycine (200 mM), pH 10.75). For OGA, the inhibitors were preincubated with the enzyme for 10 min before the addition of the substrate. Readings were taken at excitation and emission wavelengths of 368 nm and 450 nm respectively. […] Inhibitors were added at a range of concentrations encompassing their Ki values. The rates at each inhibitor concentration were plotted and the best fit line through the points ascertained. The −1/Ki was taken as the point where the line of best fit intersected with 1/Vmax.

β-hexosaminidase B = molecular target: T2, β-hexosaminidase B (Homo sapiens, UniProt P07686); test: Kinetic analysis of inhibitors against β-hexosaminidase B; format: biochemical
T2 sequence (P07686 122-556): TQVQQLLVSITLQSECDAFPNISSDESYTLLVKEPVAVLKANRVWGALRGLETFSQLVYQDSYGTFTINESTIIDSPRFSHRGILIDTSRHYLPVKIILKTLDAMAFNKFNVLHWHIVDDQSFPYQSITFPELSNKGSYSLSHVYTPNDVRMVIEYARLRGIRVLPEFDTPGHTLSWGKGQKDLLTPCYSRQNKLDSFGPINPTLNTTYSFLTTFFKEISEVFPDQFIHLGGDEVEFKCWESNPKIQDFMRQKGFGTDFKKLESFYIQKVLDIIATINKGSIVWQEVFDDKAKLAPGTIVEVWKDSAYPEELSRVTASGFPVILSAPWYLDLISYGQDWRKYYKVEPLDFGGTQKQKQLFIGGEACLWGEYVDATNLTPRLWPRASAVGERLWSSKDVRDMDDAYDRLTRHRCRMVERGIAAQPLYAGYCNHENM
Method: as §1

O-GlcNAcase (OGA) = molecular target: T3, O-GlcNAcase (OGA) (Homo sapiens, UniProt O60502); test: Kinetic analysis of inhibitors against O-GlcNAcase; format: biochemical
T3 sequence (O60502 1-916): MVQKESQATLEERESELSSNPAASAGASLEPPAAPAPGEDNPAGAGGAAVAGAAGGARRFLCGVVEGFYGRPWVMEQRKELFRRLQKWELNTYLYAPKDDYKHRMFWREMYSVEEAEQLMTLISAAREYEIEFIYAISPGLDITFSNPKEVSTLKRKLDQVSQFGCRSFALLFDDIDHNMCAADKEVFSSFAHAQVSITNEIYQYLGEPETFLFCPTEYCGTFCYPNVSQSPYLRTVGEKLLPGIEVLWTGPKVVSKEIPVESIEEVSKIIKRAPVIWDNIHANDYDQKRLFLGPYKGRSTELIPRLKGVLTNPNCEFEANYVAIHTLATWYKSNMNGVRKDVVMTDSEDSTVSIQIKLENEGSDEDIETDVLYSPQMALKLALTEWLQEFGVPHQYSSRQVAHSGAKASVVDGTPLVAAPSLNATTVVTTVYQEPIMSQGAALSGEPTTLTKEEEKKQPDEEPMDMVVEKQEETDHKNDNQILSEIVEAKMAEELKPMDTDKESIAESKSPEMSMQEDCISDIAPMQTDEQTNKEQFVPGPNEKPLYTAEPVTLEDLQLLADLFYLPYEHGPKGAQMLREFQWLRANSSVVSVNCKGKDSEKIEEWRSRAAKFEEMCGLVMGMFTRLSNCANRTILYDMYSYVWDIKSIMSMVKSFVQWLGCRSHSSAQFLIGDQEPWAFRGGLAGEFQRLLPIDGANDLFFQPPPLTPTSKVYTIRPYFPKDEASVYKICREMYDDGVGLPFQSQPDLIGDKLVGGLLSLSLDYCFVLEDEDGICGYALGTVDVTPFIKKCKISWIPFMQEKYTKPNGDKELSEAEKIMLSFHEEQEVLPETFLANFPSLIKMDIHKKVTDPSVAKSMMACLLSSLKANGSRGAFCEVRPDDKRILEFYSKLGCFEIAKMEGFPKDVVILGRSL
Method: as §1

StNagZ = molecular target: T4, StNagZ (Salmonella typhimurium, UniProt Q8ZQ06); test: Kinetic analysis of inhibitors against StNagZ; format: biochemical; conditions: for S.R. (Ki OGA/Ki StNagZ): selectivity ratio
T4 construct: made in house

NAGLU [1] = molecular target: T5, NAGLU (Homo sapiens, UniProt P54802); test: Kinetic analysis of inhibitors against NAGLU; format: biochemical
T5 sequence (P54802 24-743): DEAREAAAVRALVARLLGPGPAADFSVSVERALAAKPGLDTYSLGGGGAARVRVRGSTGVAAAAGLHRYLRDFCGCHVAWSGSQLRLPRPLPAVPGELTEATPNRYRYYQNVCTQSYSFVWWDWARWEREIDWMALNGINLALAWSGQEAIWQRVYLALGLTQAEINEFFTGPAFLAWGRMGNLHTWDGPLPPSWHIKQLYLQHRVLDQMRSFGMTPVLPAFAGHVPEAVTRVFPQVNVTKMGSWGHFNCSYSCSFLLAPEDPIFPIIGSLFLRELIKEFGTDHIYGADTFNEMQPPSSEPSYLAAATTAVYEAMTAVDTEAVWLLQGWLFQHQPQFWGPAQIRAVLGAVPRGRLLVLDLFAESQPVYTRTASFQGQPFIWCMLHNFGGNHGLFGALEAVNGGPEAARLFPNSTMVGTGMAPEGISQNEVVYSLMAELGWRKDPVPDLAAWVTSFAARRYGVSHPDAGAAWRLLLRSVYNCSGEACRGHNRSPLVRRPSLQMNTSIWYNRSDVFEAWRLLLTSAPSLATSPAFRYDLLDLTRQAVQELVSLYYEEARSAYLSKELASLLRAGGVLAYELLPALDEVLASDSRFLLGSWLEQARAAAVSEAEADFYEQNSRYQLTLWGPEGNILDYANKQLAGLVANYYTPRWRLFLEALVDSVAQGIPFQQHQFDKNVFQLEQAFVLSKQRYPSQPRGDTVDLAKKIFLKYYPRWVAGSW
Method: as §1

P. aeruginosa PA01 [2] = test: Minimal inhibitory concentration of β-lactams by serial dilution; conditions: Pseudomonas aeruginosa, PA01, 18 h, standard serial dilution, 18 h at 37°C
Method: Determination of the Minimal Inhibitory Concentration of β-lactams: Cultures were prepared by inoculating Mueller–Hinton broth (5 mL) with a small amount of a glycerol stock of P. aeruginosa PA01 and then were grown at 37°C to an OD600 value of ≈0.5. 96-well plates containing a range of concentrations of β-lactams varying by factors of 2 were prepared. […] These broths were inoculated with the culture (100 μL) and allowed to incubate at 37°C for 18 h. […] All MIC determinations were performed in triplicate.

P. aeruginosa PA01 [3] = test: Control: 21 alone as inhibitor of bacterial growth; format: cell-based, Pseudomonas aeruginosa; conditions: up to 1 mM (data not shown)
Source text: . […] Of note is that the concentration of 21 required to give rise to the increased susceptibility observed is fivefold less than the concentration of the PUGNAc analogue O-(2-deoxy-2-N-2-ethylbutyryl-D-glucopyranosylidene)amino N-phenylcarbamate (EtBuPUG) used previously to induce a similar effect.[23]

P. aeruginosa PA01 [4] = test: Agar diffusion test; format: cell-based, Pseudomonas aeruginosa; conditions: 6 mm filter disks loaded with 30 μg of antibiotic, incubation overnight
NAGLU [5] = molecular target: T5, NAGLU; parameters: method as in PMID 10833408; conditions: read-out: NAGLU Ki; literature value; cited from earlier work
[6] = +21 (20 μL of 1 mM in H2O per well)

Structure (SMILES) | pKi (VcNagZ) | S.R. (Ki OGA/Ki VcNagZ) (VcNagZ) | pKi (β-hexosaminidase B) | pKi (O-GlcNAcase (OGA)) | pKi (StNagZ) | S.R. (Ki OGA/Ki StNagZ) (StNagZ) | pKi (NAGLU [1]) | MIC (P. aeruginosa PA01 [2]; [6]) | MIC (P. aeruginosa PA01 [2]; −21) | effect on bacterial growth rates (P. aeruginosa PA01 [3]) | Clearing radius (P. aeruginosa PA01 [4]; +21) | Clearing radius (P. aeruginosa PA01 [4]; −21) | pKi (NAGLU [5])
CCCCC(=O)N[C@H]1CN[C@H](CO)[C@@H](O)[C@@H]1O [Compound 22, 1,5-Imino-1,2,5-trideoxy-2-valeramido-D-glucitol] | 3.96 | >9 | < 2.30 | < 3.00 | 4.33 | >21 | < 3.00 | – | – | – | – | – | –
CCC(=O)N[C@H]1CN[C@H](CO)[C@@H](O)[C@@H]1O [Compound 20, 1,5-Imino-2-propamido-1,2,5-trideoxy-D-glucitol] | 5.38 | 31 | 4.21 | 3.89 | 4.34 | 2.9 | 4.02 | – | – | – | – | – | –
CC(C)C(=O)N[C@H]1CN[C@H](CO)[C@@H](O)[C@@H]1O [Compound 24, 1,5-Imino-2-isobutamido-1,2,5-trideoxy-D-glucitol] | 4.80 | – | 3.17 | < 3.00 | 4.61 | >40 | 3.10 | – | – | – | – | – | –
C[C@H]1[C@H](NC(=O)/C(=N\OC(C)(C)C(=O)O)c2csc(N)n2)C(=O)N1S(=O)(=O)O [Aztreonam, aztreonam] | – | – | – | – | – | – | – | 0.5 µg/mL (≈ 1.15 µM) | 1 µg/mL (≈ 2.3 µM) | – | – | – | –
CCCC(=O)N[C@H]1CN[C@H](CO)[C@@H](O)[C@@H]1O [Compound 21, 2-Butamido-1,5-imino-1,2,5-trideoxy-D-glucitol] | 5.03 | >53 | 2.84 | < 3.30 | – | >22 | < 3.00 | – | – | no differences in growth rates | – | – | –
C[C@@H](O)[C@H]1C(=O)N2C(C(=O)O)=C(SCCN=CN)C[C@H]12 [Imipenem, imipenem] | – | – | – | – | – | – | – | 4 µg/mL (≈ 13.4 µM) | 8 µg/mL (≈ 26.7 µM) | – | 13.3 mm | 11.9 mm | –
CC1(C)S[C@@H]2[C@H](NC(=O)[C@H](N)c3ccccc3)C(=O)N2[C@H]1C(=O)O [Ampicillin, ampicillin] | – | – | – | – | – | – | – | 128 µg/mL (≈ 366 µM) | 512 µg/mL (≈ 1470 µM) | – | – | – | –
CC(C)(O/N=C(\C(=O)N[C@@H]1C(=O)N2C(C(=O)[O-])=C(C[n+]3ccccc3)CS[C@H]12)c1csc(N)n1)C(=O)O [Ceftazidime, ceftazidime] | – | – | – | – | – | – | – | 0.5 µg/mL (≈ 0.915 µM) | 2 µg/mL (≈ 3.66 µM) | – | 14.3 mm | 12.2 mm | –
CO[C@@]1(NC(=O)Cc2cccs2)C(=O)N2C(C(=O)O)=C(COC(N)=O)CS[C@@H]21 [Cefoxitin, cefoxitin] | – | – | – | – | – | – | – | 512 µg/mL (≈ 1200 µM) | 2050 µg/mL (≈ 4790 µM) | – | – | – | –
CC(C)CC(=O)N[C@H]1CN[C@H](CO)[C@@H](O)[C@@H]1O [Compound 25, 1,5-Imino-2-isovaleramido-1,2,5-trideoxy-D-glucitol] | 3.26 | >1.8 | < 2.30 | < 3.00 | 3.53 | >3.4 | < 3.00 | – | – | – | – | – | –
CC(=O)N[C@H]1CN[C@H](CO)[C@@H](O)[C@@H]1O [Compound 1, 2-Acetamido-1,5-imino-1,2,5-trideoxy-D-glucitol] | 5.07 | 2.8 | – | 4.64 | 4.60 | 0.94 | – | – | – | – | – | – | 6.35
CCCCCC(=O)N[C@H]1CN[C@H](CO)[C@@H](O)[C@@H]1O [Compound 23, 2-Hexamido-1,5-imino-1,2,5-trideoxy-D-glucitol] | 2.95 | >0.9 | < 2.30 | < 3.00 | 3.99 | >10 | < 3.00 | – | – | – | – | – | –
